We go through one molecule from ChEMBL document CHEMBL5543086, “Discovery of novel NSAID hybrids as cPLA2/COX-2 dual inhibitors alleviating rheumatoid arthritis via inhibiting p38 MAPK pathway” (Eur J Med Chem, 2024).

For data set [1], the system named is Rattus norvegicus. The experiment in a line: Antiarthritic activity in Freund's complete adjuvant induced Lewis rat model of arthritis assessed as reduction in IL-6 level in serum at 20 mg/kg, po administered every 24 hrs for 28 days post immunization starting from day 8 post immunization by ELISA. Format: functional, organism-based. Particulars: time 21.0 day. Background: ELISA stands for enzyme-linked immunosorbent assay.

Data set [2] has as its system RAW264.7. The experiment in a line: Antiinflammatory activity in LPS-induced mouse RAW264.7 cells assessed as inhibition of NO production pretreated for 1 hr followed by LPS stimulation and measured after 24 hrs by griess reagent based assay. Type of data set: functional, cell-based. A general note: Nitrite, measured by Griess reagent, commonly stands in for NO production.

A short description of data set [3]: Toxicity in male Wistar rat assessed as gastrointestinal damage by measuring ulcer index at 50 mg/kg administered by gavage and measured after 6 hrs. Particulars: in vivo, po. Type of data set: organism-based.
Data set [4] concerns Rattus norvegicus. Put plainly: Immunomodulatory activity in Freund's complete adjuvant induced Lewis rat model of arthritis assessed as decrease in anti-IL-17 antibody expression in knee joint slices at 20 mg/kg, po administered every 24 hrs for 28 days post immunization starting from day 8 post immunization by immunohistochemistry analysis. Type of data set: functional, organism-based. The conditions noted are these: time 21.0 day.

Data set [5] deals with Rattus norvegicus. The experiment in a line: Immunomodulatory activity in Freund's complete adjuvant induced Lewis rat model of arthritis assessed as reduction in IL-17 level in serum at 20 mg/kg, po administered every 24 hrs for 28 days post immunization starting from day 8 post immunization by ELISA. Format: functional, organism-based. The conditions noted are these: time 21.0 day.

Data set [6] relates to Rattus norvegicus. The experiment in a line: Immunomodulatory activity in Freund's complete adjuvant induced Lewis rat model of arthritis assessed as increase in IL-10 level in serum at 20 mg/kg, po administered every 24 hrs for 28 days post immunization starting from day 8 post immunization by ELISA. Type of data set: functional, organism-based. Particulars: time 21.0 day.

Data set [7] in a line: Toxicity in male Wistar rat assessed as gastrointestinal damage by measuring level-1 ulcers with <1 mm area at 50 mg/kg administered by gavage and measured after 6 hrs. Format: organism-based. Particulars: in vivo, po.
Data set [8] relates to Rattus norvegicus. Put plainly: Immunomodulatory activity in Freund's complete adjuvant induced Lewis rat model of arthritis assessed as increase in anti-IL-10 antibody expression in knee joint slices at 20 mg/kg, po administered every 24 hrs for 28 days post immunization starting from day 8 post immunization by immunohistochemistry analysis. Format: functional, organism-based. The conditions noted are these: time 21.0 day.

Data set [9] is described as follows: Toxicity in male Wistar rat assessed as gastrointestinal damage by measuring number of ulcers at 50 mg/kg administered by gavage and measured after 6 hrs (reference value: 0). Type of data set: organism-based. Particulars: in vivo, po.
A short description of data set [10]: Toxicity in male Wistar rat assessed as gastrointestinal damage by measuring level-2 ulcers with 1 to 3 mm area at 50 mg/kg administered by gavage and measured after 6 hrs. Format: organism-based. Particulars: in vivo, po.
In data set [11] the test system is Rattus norvegicus. Put plainly: Antiarthritic activity in Freund's complete adjuvant induced Lewis rat model of arthritis assessed as reduction in PGE2 level in serum at 20 mg/kg, po administered every 24 hrs for 28 days post immunization starting from day 8 post immunization by ELISA. Format: functional, organism-based. Particulars: time 21.0 day.
A short description of data set [12]: Toxicity in male Wistar rat assessed as gastrointestinal damage by measuring level-3 ulcers with >3 mm area at 50 mg/kg administered by gavage and measured after 6 hrs. Type of data set: organism-based. Particulars: in vivo, po.
Data set [13] deals with Rattus norvegicus. Put plainly: Antiarthritic activity in Freund's complete adjuvant induced Lewis rat model of arthritis assessed as reduction in TNFalpha level in serum at 20 mg/kg, po administered every 24 hrs for 28 days post immunization starting from day 8 post immunization by ELISA. Format: functional, organism-based. The conditions noted are these: time 21.0 day.

In data set [14] the test system is RAW264.7. Put plainly: Cytotoxicity against LPS-induced mouse RAW264.7 cells assessed as reduction in cell viability at 30 uM pretreated for 1 hr followed by LPS addition and measured after 24 hrs by MTT assay. Particulars: raw264.7, 25 h. Type of data set: toxicity, cell-based.

Molecules are shown by their SMILES. The source made the active and inactive calls. No cut-off for these calls is given here.

For `CC(C(=O)O)c1cccc(C(=O)c2ccccc2)c1` (centres undefined) [KETOPROFEN], the outcome in the data set on Rattus norvegicus [1], in the data set with Rattus norvegicus [4], in the data set on Rattus norvegicus [5], in the data set with Rattus norvegicus [6], in the data set on Rattus norvegicus [8] and in the data set on Rattus norvegicus [11] was Active. Moreover, in the data set on Rattus norvegicus [13], the outcome was Active. Also, the half-maximal inhibitory concentration (IC50) in the data set on RAW264.7 [2] is 7.07 µM. For the same molecule, in [3], the UI came to 40. Besides, the Activity in [7] is recorded as 65%; in data set [9], 23; in [10], 30%; in [12] it was 4%; with RAW264.7 [14], “Non-Toxic”.

The term IC50 denotes the midpoint of a concentration-inhibition curve.
